Data from patent US8697692B2, “Pyrrolo [3,2-c] pyridine-4-one 2-indolinone protein kinase inhibitors” (Shanghai Hengrui Pharmaceutical Co., Ltd., priority 2006, dated 2014).
Where two headings read alike, the source gives them in different places.

System: A431 cell
Test: Cell Proliferation Inhibition EGFR Assay (SRB method)
Assay type: cell-based, homo sapient
Conditions: Homo sapiens, read-out: IC50 (A431)
From the text: The following in vitro assay may be used to determine the level of activity and effect of different compounds of the present invention on the proliferation inhibition (cell toxic) of […] growth factor receptor (EGFR) high expressing homo […] cancer cell-A431 cell. The cellular assay described here measure the compounds of their anti-angiogenesis and proliferation inhibition activity and effect through EGFR on the cancer cells in vitro. The effect and activity is represented by the IC50 value that kills the cancer cell. […] The homo […] highly express EGFR are chosen and seeded to 96-well cell culture plate at a suitable concentration (exp 5000 cells/ml medium). The cells then are cultured in carbon dioxide (CO2) incubator till when they confluence to about 85%. Then, the cell culture medium is replaced by fresh one with tested compounds added in it at serial concentrations (general 6 to 7 concentrations). Then the cells are put back to the culture and cultured for continuous 72 hours. 72 hours later, the cell exposed to compounds and control cell are assayed for their proliferation using Sulforhodamine B (SRB) method. Compounds IC50 on tested cells are calculated by the data of inhibition rates of serial concentrations of the tested compounds. • a. Dimethyl sulfoxide (Sinophma chemical reagent company, catalog No. T20050806) • b. A431 cells (Purchased from Institute of biochemistry and cell biology) • c. Falcon 100 mm cell culture plates (Baton Dickison Labware, Baton Dickison and company, • Catalog No. 18677) • d. coming 96-well culture cluster (Corning Incorporated, Catalog No. 3599) • e. Fisher Pipette (Fisher scientific, Catalog No. 03-692-164) • f. DMEM/F12 cell medium (Gibco, Catalog No. 12400-024) • g. Fetal bovine serum, origin from Australia (Gibco, Catalog No. 10099-141) • h. […] Sulforhodamine B (Sigma, Catalog No. 3520-42-1) • k. Acetic Acid (Sinophma chemical reagent company, Catalog No. T20060508) • l. Trichloroacetic Acid (Sinophma chemical reagent company, Catalog No. T20060305) • m. Tris base (Amresco, Catalog No. 0826) • n. Class II A/B3 Biological safety cabinet (ThermoForma Catalog No. HB0053 03) • o. Series II water jacketed CO2 incubator (ThermoForma Model: 3111) • p. Centrifuge (Fisher Scientific Marathon 8 k, Catalog No. 0027-02) • q. Novastar Plate reader (BMG Labtech, Catalog No. 700 0081) • r. Orbital Shaker (Qilinbeier, Catalog No. TS-1) Protocol: […] Growing seeded 96-well plates at 37° C., 5% CO2, till 85% confluence. • 4. Prepare compounds stock solution, using DMSO solve candidate compounds to a concentration of 20 mM. […] Use cell culture medium (in this case, DMEM/F12+10% FBS) to dilute the compounds solution prepared above. Each DMSO serial concentration compound solution is diluted by 20 times with culture medium by adding 5 μl DMSO compound solution to 95 μl culture medium, then mix well by vortex. This promise that the DMSO concentration at that the A431 cell will exposed to will not surpass 0.5%. • 6. […] Each well added 180 μl medium, then add 20 μl medium solution of tested compounds prepared at step 5 to each well. For control group cell, add 20 μl culture medium containing 0.5% pure DMSO. […] Each 96-well plate, we can test 3 compounds with a control cell group. • 7. Put the culture plates back to incubator, culture for 72 hours at 37° C., 5% CO2. • 8. 72 hours later, remove cultures from incubator into sterile work area. • 9. Prepare fixative (50% Trichloroacetic Acid-TCA) by adding reagent grade water to the TCA, fix the cells by gently layering […] of cold TCA solution on top of the growth medium. • 10. Incubate plates for 1 hour at 4° C. and then rinse with water several times to remove TCA, serum proteins, etc. Plates are air dried and stored until use. Bland background optical density is measured in wells incubated with growth medium without cells. • 11. Use 10% acetic acid solution to prepare 0.4% Sulforhodamine B solution. Add 50 μl sulforhodamine B solution to each well of 96-well plates. • 12. […]

[1] = A-431, A431 cells, 72 hours exposure, Sulforhodamine B

IC50 [1]	Compound	IC50 (A-431, 72 h)
3060 nM	O=C(CO)Nc1cc2c(cc1F)/C(=C/c1[nH]c3c(c1-c1ccc(F)cc1)C(=O)NCC3)C(=O)N2 [Example 65, N-{5-Fluoro-3-[3-(4-fluoro-phenyl)-4-oxo-4,5,6,7-tetrahydro-1H-pyrrolo[3,2-c]pyridin-2-ylmethylene]-2-oxo-2,3-dihydro-1H-indol-6-yl}-2-hydroxy-acetamide]	
2030 nM	COCC(=O)Nc1cc2c(cc1F)/C(=C/c1[nH]c3c(c1-c1ccc(F)cc1)C(=O)NCC3)C(=O)N2 [Example 67, N-{5-Fluoro-3-[3-(4-fluoro-phenyl)-4-oxo-4,5,6,7-tetrahydro-1H-pyrrolo[3,2-c]pyridin-2-ylmethylene]-2-oxo-2,3-dihydro-1H-indol-6-yl}-2-methoxy-acetamide]	
1680 nM	Cc1c(/C=C2\C(=O)Nc3cccc(CCO)c32)[nH]c2c1C(=O)N(CCN1CCCC1)CC2 [Example 75, 2-[4-(2-Hydroxy-ethyl)-2-oxo-1,2-dihydro-indol-3-ylidenemethyl]-3-methyl-5-(2-pyrrolidin-1-yl-ethyl)-1,5,6,7-tetrahydro-pyrrolo[3,2-c]pyridin-4-one]	
270 nM	Cc1c(/C=C2\C(=O)Nc3c(Br)cc(F)cc32)[nH]c2c1C(=O)N(CCN1CCCCC1)CC2 [Example 90, 2-(7-Bromo-5-fluoro-2-oxo-1,2-dihydro-indol-3-ylidenemethyl)-3-methyl-5-(2-piperidin-1-yl-ethyl)-1,5,6,7-tetrahydro-pyrrolo[3,2-c]pyridin-4-one]	
120 nM	Cc1c(/C=C2\C(=O)Nc3ccc(NC=O)cc32)[nH]c2c1C(=O)N(CCN1CCCCC1)CC2 [Example 91, N-{3-[3-Methyl-4-oxo-5-(2-piperidin-1-yl-ethyl)-4,5,6,7-tetrahydro-1H-pyrrolo[3,2-c]pyridin-2-ylmethylene]-2-oxo-2,3-dihydro-1H-indol-5-yl}-formamide]	
1660 nM	Cc1c(/C=C2\C(=O)Nc3ncc(Br)cc32)[nH]c2c1C(=O)N(CCN1CCCCC1)CC2 [Example 93, 2-(5-Bromo-2-oxo-1,2-dihydro-pyrrolo[2,3-b]pyridin-3-ylidenemethyl)-3-methyl-5-(2-piperidin-1-yl-ethyl)-1,5,6,7-tetrahydro-pyrrolo[3,2-c]pyridin-4-one]	
340 nM	Cc1c(/C=C2\C(=O)Nc3cc(NCc4ccc(F)cc4)c(F)cc32)[nH]c2c1C(=O)N(CCN1CCCCC1)CC2 [Example 94, 2-[5-Fluoro-6-(4-fluoro-benzylamino)-2-oxo-1,2-dihydro-indol-3-ylidenemethyl]-3-methyl-5-(2-piperidin-1-yl-ethyl)-1,5,6,7-tetrahydro-pyrrolo[3,2-c]pyridin-4-one]	

The remaining lines, values behind:

Compound	IC50 [1]	IC50 (A-431, 72 h)
CCN(CC)CCN1CCc2[nH]c(/C=C3\C(=O)Nc4c(NC(C)=O)cc(F)cc43)c(C)c2C1=O [Example 6, N-{3-[5-(2-Diethylamino-ethyl)-3-methyl-4-oxo-4,5,6,7-tetrahydro-1H-pyrrolo[3,2-c]pyridine-2-ylmethylene]-5-fluoro-2-oxo-2,3-dihydro-1H-indol-7-yl}-acetamide]	1380 nM	
Cc1c(/C=C2\C(=O)Nc3ccc(F)cc32)[nH]c2c1C(=O)N(CCN1CCOCC1)CC2 [Example 15, 2-(5-Fluoro-2-oxo-1,2-dihydro-indol-3-ylidenemethyl)-3-methyl-5-(2-morpholin-4-yl-ethyl)-1,5,6,7-tetrahydro-pyrrolo[3,2-c]pyridin-4-one]		1350 nM
Cc1c(/C=C2\C(=O)Nc3ccc(NS(C)(=O)=O)cc32)[nH]c2c1C(=O)N(CCN1CCOCC1)CC2 [Example 22, N-{3-[3-Methyl-5-(2-mopholin-4-yl-ethyl)-4-oxo-4,5,6,7-tetrahydro-1H-pyrrolo[3,2-c]pyridine-2-ylmethylene]-2-oxo-2,3-dihydro-1H-indol-5-yl}-methanesulfonamide]	2850 nM	
Cc1c(/C=C2\C(=O)Nc3cccc(-c4cccc(Cl)c4F)c32)[nH]c2c1C(=O)N(CCN1CCOCC1)CC2 [Example 48, 2-[4-(3-Chloro-2-fluoro-phenyl)-2-oxo-1,2-dihydro-indol-3-ylidenemethyl]-3-methyl-5-(2-morpholin-4-yl-ethyl)-1,5,6,7-tetrahydro-pyrrolo[3,2-c]pyridin-4-one]	6110 nM	
Cc1c(/C=C2\C(=O)Nc3cc(NC(=O)CO)c(F)cc32)[nH]c2c1C(=O)N(CCN1CCCCC1)CC2 [Example 61, N-{5-Fluoro-3-[3-methyl-4-oxo-5-(2-piperidin-1-yl-ethyl)-4,5,6,7-tetrahydro-1H-pyrrolo[3,2-c]pyridin-2-ylmethylene]-2-oxo-2,3-dihydro-1H-indol-6-yl}-2-hydroxy-acetamide]	1250 nM	
Cc1c(/C=C2\C(=O)Nc3cccc(-c4c(F)cccc4F)c32)[nH]c2c1C(=O)N(CCN1CCCCC1)CC2 [Example 63, 2-[4-(2,6-Difluoro-phenyl)-2-oxo-1,2-dihydro-indol-3-ylidenemethyl]-3-methyl-5-(2-piperidin-1-yl-ethyl)-1,5,6,7-tetrahydro-pyrrolo[3,2-c]pyridin-4-one]	530 nM	
